Experimental data from patent publication US4525347A, “Antiinflammatory analgesic gelled ointment” (Kowa Company Limited, priority 1983, dated 1985).
Where two headings read alike, the source gives them in different places.

Assays:
[1] = Skin absorption of indomethacin suspended in conventional ointment bases; assay type: in vivo, human beings; conditions: topical
[2] = Effect of pH of the ointment on indomethacin (crystallization, decomposition); assay type: physicochemical
[3] = Topical administration of indomethacin: activity and adverse reactions; assay type: in vivo; conditions: administered topically
[4] = Effect of adjuvant on skin absorption of indomethacin; assay type: in vivo; conditions: combination with an adjuvant
[5] = in water and common media; cited from earlier work
[6] = cited from earlier work

COc1ccc2c(c1)c(CC(=O)O)c(C)n2C(=O)c1ccc(Cl)cc1 [indomethacin, Indomethacin]
absorption by the skin [1]: remain unabsorbed by the skin of human beings | decomposition of indomethacin ([2]; pH level above 7.5): decomposed indomethacin | crystallization during the ointment preparation ([2]; pH level below 4.8): crystallization of indomethacin | adverse reactions attributable to the administration of indomethacin [3]: completely eliminated | antiinflammatory analgesic activity, topical vs internal use [3]: to the same extent as attained by its internal use | absorption of indomethacin by the skin [4]: substantially increased | solubility [5]: only slightly soluble | adverse effects ([6]; oral use): gastroenteric disorders | adverse effects ([6]; suppository form, patient suffering from peptic ulcer): decreased appetite, nausea, vomiting, stomach ache, diarrhea and loose passage
